Assay results reported in PMC10526274, “Epithelial-Immune Cell Crosstalk Determines the Activation of Immune Cells In Vitro by the Human Cathelicidin LL-37 at Low Physiological Concentrations” (Biomolecules, 2023).

Tested on: NKT cells (CD3+CD56+)
Experiment: Multiplex xMAP cytokine levels, NKT cells alone stimulated with LL-37
Format: cell-based, human
Conditions: 1 µM LL-37, 24 h
Protocol: NKT cells (CD3^+CD56^+) were isolated from PBMCs using the FACSVantageDiVa cell sorter (Becton Dickinson, Franklin Lakes, NJ, USA), equipped with 405, 488, and 643 nm lasers (Supporting Materials, Figure S1). PBMCs were re-suspended in the FACS buffer (PBS containing 0.5% BSA and 2 mM EDTA) and labeled with monoclonal mouse anti-human CD3-APC (clone UCHT1, Beckman Coulter, Pasadena, CA, USA) and mouse anti-human CD56-PE/Cy7 (clone N901, Beckman Coulter) antibodies to isolate NKT cells (CD3^+CD56^+).
Sorted NKT cells were expanded by stimulation with Dynabead Human T-Expander CD3/CD28 magnetic beads (Gibco) in RPMI-1640 medium containing 10% FBS, 1X antibiotic–antimycotic solution, 100 U/mL IL-2 (Gibco), and 50 ng/mL IL-7 (Sci-Store). CD3/CD28 magnetic beads were subsequently removed with a magnet. Expanded NKT cells were washed out of the cytokines and cryopreserved.
Primary blood monocytes, moDCs, and NKT cells were seeded in 600 µL of complete RPMI-1640 with 10% Human AB serum (Capricorn Scientific, Ebsdorfergrund, Germany) and supplemented with 1X antibiotic–antimycotic solution into the wells of 24-well plates at a density of 3–7 × 10^5 cells/well 24 h before the experiment. Then, 24 h later, the medium in each well was replaced by the same medium with 1 µM of LL-37 for the sample wells or fresh medium alone for the control wells, and the permeable inserts with the Caco-2 monolayer with TEER > 400 Ω × cm^2, containing 400 μL of the complete medium in their apical chamber, were immediately placed into the appropriate wells. Also, inserts with the Caco-2 monolayer were placed in cell-free wells of 24-well plates in the same complete RPMI-1640 medium with or without 1 µM of LL-37 as controls. Cells were kept in a CO2-incubator (5% CO2, 37 °C) for another 24 h. Then, culture medium from each well was collected, centrifuged, and frozen at −70 °C.
To quantitatively evaluate a broad spectrum of analytes secreted by human cell cultures at the protein level, multiplex xMAP technology was used. The chosen panel (cat. #HCYTA-60K-PX48, Merck, Darmstadt, Germany) included 48 different magnetic beads with primary antibodies to the following cytokines, chemokines, and growth factors: CCL11 (Eotaxin-1), Flt-3 ligand, CX3CL1 (Fractalkine), sCD40L, FGF-2, EGF, GROα, GM-CSF, G-CSF, IL-1RA, IL-1α, IL-1β, IL-2, IL-3, IL-4, IL-5, IL-6, IL-7, CXCL8 (IL-8), IL-9, IL-10, IL-12p40, IL-12p70, IL-13, IL-15, IL-17A (CTLA8), IL-17E (IL-25), IL-17F, IL-18, IL-22, IL-27, IFNγ, IFNα2, CXCL10 (IP-10), CCL2 (MCP-1), CCL7 (MCP-3), CCL22 (MDC), CXCL9 (MIG), CCL3 (MIP-1α), CCL4 (MIP-1β), CCL5 (RANTES), M-CSF, PDGF-AA, PDGF-AB/BB, TNFα, TNFβ, TGFα, and VEGF-A. The assay was performed in accordance with the manufacturer’s instructions with overnight incubation of the samples with primary antibodies, and the plate was read on a MAGPIX System (Merck) using the xPONENT 4.2 software (Merck). The acquired fluorescence data were analyzed by the MILLIPLEX Analyst v5.1 software (Merck), which realized an advanced curve-fitting algorithm. Levels of the analytes in control and experimental samples were compared with an unpaired two-sample t-test using GraphPad Prism v.8.0.1 (GraphPad Software, Inc., San Diego, CA, USA). The p-values ≤ 0.05 were considered significant.

Substance: LL-37: the only human cathelicidin, host defense antimicrobial peptide of 37 a.a. residues, produced by solid-phase peptide synthesis
- IL-8 level (n=2, control 0.21): 2.37 pg/mL
- IL-10 level (n=2, control 1.55): <1.35↓ pg/ml
- IL-2 level (n=2, control 1.66): 1.16 pg/mL
- FLT-3L level (n=2, control 1.72): 1.67 pg/mL
- EGF level (n=2, control 2.26): 2.26 pg/mL
- IL-6 level (n=2, control 3.12): 1.89 pg/mL
- MCP-3 level (n=2, control 4.7): 4.7 pg/mL
- MDC level (n=2, control 5.04): 2.93 pg/mL
- IL-9 level (n=2, control 7.06): 7.45 pg/mL
- MIG level (n=2, control 10.31): 7.16 pg/mL
- IL-1a level (n=2, control 11.32): 13.27 pg/mL
- IL-27 level (n=2, control 13.33): 29.42 pg/mL
- IFNg level (n=2, control 13.41): 12.33 pg/mL
- TNFa level (n=2, control 14.53): 13.36 pg/mL
- sCD40L level (n=2, control 18.13): <8.15↓ pg/ml
- FGF-2 level (n=2, control 29.25): 21.45 pg/mL
- IP-10 level (n=2, control 56.07): 50.77 pg/mL
- M-GSF level (n=2, control 66.65): 60.35 pg/mL
- MIP-1b level (n=2, control 67.9): 58.14 pg/mL
- GM-CSF level (n=2, control 76.24): 76.06 pg/mL
- IL-13 level (n=2, control 251.23): 237.88 pg/mL
- IL-5 level (n=2, control 323.09): 285.93 pg/mL
- RANTES level (n=2, control 1182): 1237 pg/mL
- MIP-1a level (n=2, control 1355): 1113 pg/mL
- IL-7 level (n=2, control <0.30): <0.30↓ pg/ml
- IL-18 level (n=2, control <0.30): <0.30↓ pg/ml
- IL-3 level (n=2, control <0.55): <0.55↓ pg/ml
- GROa level (n=2, control <0.66): <0.66↓ pg/ml
- TGF-a level (n=2, control <0.68): <0.68↓ pg/ml
- IL-17A level (n=2, control <0.70): <0.70↓ pg/ml
- IL-1b level (n=2, control <0.74): <0.74↓ pg/ml
- IL-4 level (n=2, control <0.87): <0.87↓ pg/ml
- IL-1RA level (n=2, control <0.93): <0.93↓ pg/ml
- TNFb level (n=2, control <0.93): 1 pg/mL
- VEGFa level (n=2, control <1.26): <1.26↓ pg/ml
- MCP-1 level (n=2, control <1.35): <1.35↓ pg/ml
- IL-15 level (n=2, control <1.54): <1.54↓ pg/ml
- IL-12 (p70) level (n=2, control <1.71): <1.71↓ pg/ml
- G-CSF level (n=2, control <2.32): <2.32↓ pg/ml
- Eotaxin level (n=2, control <2.91): <2.91↓ pg/ml
- IL-12 (p40) level (n=2, control <3.33): <3.33↓ pg/ml
- IFNa2 level (n=2, control <3.88): <3.88↓ pg/ml
- PDGF-AB/BB level (n=2, control <5.00): <5.00↓ pg/ml
- PDGF-AA level (n=2, control <6.49): <6.49↓ pg/ml
- IL-22 level (n=2, control <6.61): <6.61↓ pg/ml
- IL-17F level (n=2, control <12.19): <12.19↓ pg/ml
- Fractalkine level (n=2, control <18.09): <18.09↓ pg/ml
- IL-17E/IL-25 level (n=2, control <19.43): <19.43↓ pg/ml
